Literature values as cited in patent US20250205209A1, “Methods of Treating a Subject for Myalgic Encephalomyelitis/Chronic Fatigue Syndrome (ME/CFS) and Compositions for Use in The Same” (INCELLDX, INC., priority 2022, published 2025).

Experiments:
R5-tropic HIV-1 = details: individuals with R5-tropic HIV-1; MOTIVATE 1 and MOTIVATE 2
[1] = HIV patients; >5 year follow-up of the MOTIVATE trials

In the case of `Cc1nnc(C(C)C)n1[C@@H]1C[C@H]2CC[C@@H](C1)N2CC[C@H](NC(=O)C1CCC(F)(F)CC1)c1ccccc1` [Maraviroc, 4,4-difluoro-N-[(1S)-3-[(1S,5R)-3-(3-methyl-5-propan-2-yl-1,2,4-triazol-4-yl)-8-azabicyclo[3.2.1]octan-8-yl]-1-phenylpropyl]cyclohexane-1-carboxamide], the HIV viral loads (R5-tropic HIV-1) is given as “lower levels of HIV viral loads” and the “instances of death and other health threats such as hepatic failure and myocardial infarctions” value [1] is given as “limited instances of death and other health threats”.
